Assay results reported in ChEMBL document CHEMBL1201862, “PubChem BioAssay data set” (2004).
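Following 48 hours of exposure in 96-well plates, responses at five concentrations were used to interpolate endpoints linearly. At the GI50, growth is halved.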 Calls of active or inactive are those of the source. Cut-off read from the data, not from the text of the source: active = GI50 up to about 1.1 µM and inactive = higher.

Columns and labels:
Experiment in all cases: NCI anticancer screen, dose series, 48 h
SF-268 = test system: SF-268
SF-295 = test system: SF-295
SK-OV-3 = test system: SK-OV-3
LOX IMVI = test system: LOX IMVI
M14 = test system: M14
OVCAR-4 = test system: OVCAR-4
SF-539 = test system: SF-539
RXF 393 = test system: RXF 393
RPMI-8226 = test system: RPMI-8226
NCI-H226 = test system: NCI-H226
COLO 205 = test system: COLO 205
TK-10 = test system: TK-10
CAKI-1 = test system: CAKI-1
KM12 = test system: KM12
HL-60 = test system: HL-60
MCF7 = test system: MCF7
T47D = test system: T47D
PC-3 = test system: PC-3
MDA-MB-231 = test system: MDA-MB-231

Measured: GI50

COC(=O)C1=C(c2ccc3c(c2)OCO3)OC(c2cc(OC)c(OC)c(OC)c2)C1 (centres undefined)
inactive: SF-268 31.6 µM | SF-295 1.5 µM | SK-OV-3 2.28 µM | LOX IMVI 5.68 µM | M14 3.53 µM | OVCAR-4 4.83 µM | SF-539 5.11 µM | RXF 393 2.81 µM | RPMI-8226 8.87 µM | NCI-H226 3.81 µM | COLO 205 1.2 µM | TK-10 5.2 µM | CAKI-1 2.12 µM

[N-]=[N+]=NC1C2CC3C4CC5CC3[C@H](C2)C(C5)C41 (some centres undefined)
inactive: SF-268 > 100 µM | SF-295 > 100 µM | SK-OV-3 > 100 µM | LOX IMVI > 100 µM | M14 > 100 µM | OVCAR-4 > 100 µM | SF-539 > 100 µM | KM12 > 100 µM | RXF 393 > 100 µM | RPMI-8226 > 100 µM | NCI-H226 75.3 µM | COLO 205 > 100 µM | TK-10 > 100 µM | CAKI-1 > 100 µM

FC(F)(F)P1C2C=CC(CC2)C1(F)F (centres undefined)
inactive: SF-268 > 100 µM | SF-295 > 100 µM | HL-60 > 100 µM | SK-OV-3 > 100 µM | LOX IMVI > 100 µM | M14 > 100 µM | OVCAR-4 > 100 µM | SF-539 > 100 µM | KM12 > 100 µM | RXF 393 > 100 µM | RPMI-8226 > 100 µM | NCI-H226 > 100 µM | COLO 205 > 100 µM | TK-10 > 100 µM | CAKI-1 > 100 µM

[N-]=[N+]=NCN1C(=O)C2C3C=CC(C2C1=O)C1C2C(=O)N(CN=[N+]=[N-])C(=O)C2C31 (centres undefined)
inactive: SF-268 > 100 µM | SF-295 60 µM | LOX IMVI > 100 µM | MCF7 > 100 µM | T47D > 100 µM | M14 > 100 µM | SF-539 > 100 µM | KM12 > 100 µM | RPMI-8226 > 100 µM | PC-3 > 100 µM | COLO 205 > 100 µM | TK-10 > 100 µM | CAKI-1 > 100 µM

Cc1nn(C)c(=O)c2nn(-c3ccccc3)c(C)c12
inactive: SF-268 > 100 µM | SF-295 > 100 µM | HL-60 > 100 µM | SK-OV-3 > 100 µM | LOX IMVI > 100 µM | M14 > 100 µM | OVCAR-4 > 100 µM | SF-539 > 100 µM | KM12 > 100 µM | RXF 393 > 100 µM | RPMI-8226 > 100 µM | NCI-H226 > 100 µM | COLO 205 > 100 µM | TK-10 > 100 µM | CAKI-1 > 100 µM

O=[N+]([O-])c1ccc2nc3n(c2c1)C(c1c(F)cccc1F)SC3 (centres undefined)
inactive: SF-295 89.5 µM | SK-OV-3 > 100 µM | LOX IMVI > 100 µM | MCF7 > 100 µM | T47D > 10 µM | MDA-MB-231 > 100 µM | KM12 > 100 µM | RPMI-8226 > 10 µM | PC-3 > 100 µM | NCI-H226 > 100 µM | TK-10 > 100 µM

O=C(c1ccccc1)c1ccc2cccc(O)c2n1
inactive: SF-268 27.5 µM | SF-295 18.7 µM | LOX IMVI 11.9 µM | M14 13.8 µM | OVCAR-4 67.8 µM | SF-539 32.6 µM | KM12 74.5 µM | RXF 393 16.4 µM | RPMI-8226 10.6 µM | NCI-H226 38.5 µM | COLO 205 37.5 µM | TK-10 94.8 µM | CAKI-1 76.4 µM

COC(=O)C(C(=O)C(=O)Nc1ccc([N+](=O)[O-])cc1)c1nc2cc(C)c(C)cc2nc1O (centres undefined)
inactive: SF-268 > 100 µM | SF-295 > 100 µM | HL-60 > 100 µM | SK-OV-3 > 100 µM | LOX IMVI > 100 µM | M14 > 100 µM | OVCAR-4 > 100 µM | SF-539 > 100 µM | KM12 > 100 µM | RXF 393 > 100 µM | RPMI-8226 > 100 µM | NCI-H226 > 100 µM | COLO 205 > 100 µM | TK-10 > 100 µM | CAKI-1 > 100 µM

O=[N+]([O-])c1cccc(C(O)/C(=N/Nc2ccccc2)C2Nc3ccc([N+](=O)[O-])cc3N=C2O)c1 (centres undefined)
inactive: SF-268 93.5 µM | SF-295 60.4 µM | HL-60 10.8 µM | SK-OV-3 > 100 µM | LOX IMVI > 100 µM | M14 42.1 µM | OVCAR-4 78.5 µM | SF-539 13.2 µM | KM12 27.8 µM | RXF 393 > 100 µM | RPMI-8226 43 µM | NCI-H226 > 100 µM | COLO 205 61.1 µM | TK-10 > 100 µM

O=[N+]([O-])c1ccc(C2=Nc3ccccc3[S+]([O-])C(c3ccccc3)C2)cc1 (centres undefined)
inactive: SF-268 27.9 µM | SF-295 31.3 µM | HL-60 16.9 µM | SK-OV-3 31.9 µM | LOX IMVI 15.2 µM | M14 20.2 µM | OVCAR-4 20.1 µM | SF-539 20.2 µM | KM12 15.3 µM | RXF 393 14.9 µM | RPMI-8226 5.56 µM | NCI-H226 16.1 µM | COLO 205 19.7 µM | TK-10 27 µM | CAKI-1 18.8 µM

CCCCOCN/C(N)=N/C#N
inactive: SF-268 > 100 µM | SF-295 > 100 µM | HL-60 > 100 µM | SK-OV-3 > 100 µM | LOX IMVI 21.5 µM | M14 > 100 µM | OVCAR-4 64.1 µM | SF-539 > 100 µM | KM12 71.4 µM | RXF 393 > 100 µM | RPMI-8226 > 100 µM | NCI-H226 > 100 µM | COLO 205 38.3 µM | TK-10 > 100 µM | CAKI-1 > 100 µM

O=c1[nH]c(=O)n(COC(CO)CO)cc1-c1ccccc1
inactive: SF-268 > 100 µM | SF-295 > 100 µM | HL-60 > 100 µM | SK-OV-3 > 100 µM | LOX IMVI > 100 µM | MCF7 > 100 µM | T47D > 100 µM | M14 > 100 µM | MDA-MB-231 > 100 µM | OVCAR-4 > 100 µM | KM12 > 100 µM | RPMI-8226 > 100 µM | PC-3 > 100 µM | COLO 205 > 100 µM | TK-10 > 100 µM | CAKI-1 > 100 µM

O=CN/C=C/c1ccc(O)c(O)c1
inactive: SF-268 > 100 µM | SF-295 > 100 µM | HL-60 55 µM | SK-OV-3 > 100 µM | LOX IMVI > 100 µM | M14 > 100 µM | OVCAR-4 > 100 µM | SF-539 > 100 µM | KM12 > 100 µM | RXF 393 > 100 µM | RPMI-8226 > 100 µM | NCI-H226 > 100 µM | COLO 205 > 100 µM | TK-10 > 100 µM | CAKI-1 > 100 µM

Cc1cc(N(CCC#N)CCC#N)ccc1/N=N/c1ccc(C(=O)O)cc1
inactive: SF-268 > 100 µM | SF-295 > 100 µM | SK-OV-3 > 100 µM | LOX IMVI > 100 µM | M14 > 100 µM | OVCAR-4 > 100 µM | SF-539 > 100 µM | KM12 > 100 µM | RXF 393 > 100 µM | RPMI-8226 99.3 µM | NCI-H226 > 100 µM | COLO 205 > 100 µM | TK-10 > 100 µM | CAKI-1 > 100 µM

COc1ccc(CN=C(N)N)c2ccccc12
inactive: SF-268 12.1 µM | SF-295 2.7 µM | HL-60 23.8 µM | SK-OV-3 34.8 µM | LOX IMVI 24.8 µM | MCF7 36.7 µM | T47D 31.9 µM | M14 37.1 µM | SF-539 19.2 µM | KM12 25.5 µM | RXF 393 33.7 µM | RPMI-8226 31.6 µM | PC-3 17.7 µM | NCI-H226 27.4 µM | COLO 205 15.8 µM | TK-10 22.2 µM | CAKI-1 20.7 µM

Clc1ccc(Cc2nc3ccccc3s2)c(Cl)c1
inactive: SF-268 15.7 µM | SF-295 16.8 µM | HL-60 15.5 µM | SK-OV-3 28.2 µM | LOX IMVI 16.7 µM | M14 16.4 µM | OVCAR-4 13.2 µM | SF-539 3.65 µM | KM12 16.6 µM | RXF 393 20.9 µM | RPMI-8226 17.7 µM | NCI-H226 20.4 µM | COLO 205 17 µM | TK-10 22.7 µM | CAKI-1 17.4 µM

CCOC(=O)NC(=O)c1cn(CCCOC(=O)CCCCCCCCCCC(=O)OCCCn2cc(C(=O)NC(=O)OCC)c(=O)[nH]c2=O)c(=O)[nH]c1=O
inactive: SF-268 > 100 µM | SF-295 > 100 µM | HL-60 > 100 µM | SK-OV-3 42.7 µM | LOX IMVI > 100 µM | M14 > 100 µM | OVCAR-4 > 100 µM | SF-539 > 100 µM | KM12 > 100 µM | RXF 393 > 10 µM | RPMI-8226 > 100 µM | NCI-H226 > 100 µM | COLO 205 > 100 µM | TK-10 > 100 µM

O=C(Cc1nc2ccccc2s1)Nc1cccc(C(F)(F)F)c1
inactive: SF-268 14.8 µM | SF-295 16.2 µM | HL-60 3.59 µM | SK-OV-3 29.5 µM | LOX IMVI 13.1 µM | M14 15.6 µM | OVCAR-4 16.2 µM | SF-539 18.8 µM | KM12 15.2 µM | RXF 393 18.2 µM | RPMI-8226 7.5 µM | NCI-H226 21.8 µM | COLO 205 17 µM | TK-10 21.2 µM | CAKI-1 16.7 µM
